Data on three molecules can be found in patent US20210228515A1, “BENZOIC ACID OR A SALT AND DERIVATIVE THEREOF FOR USE IN PREVENTING OR TREATING ANTI-N-METHYL-D-ASPARTATE RECEPTOR ENCEPHALITIS” (EXCELSIOR PHARMATECH LABS, priority 2018, published 2021).

Molecules are shown by their SMILES.

This test can be described thus: Case treatment of a patient with confirmed anti-NMDAR encephalitis. The following applies: for response to antipsychotics: high doses: aripiprazole 20-30 mg, clozapine 300-500 mg, clozapine 500 mg plus paliperidone 9 mg, before the diagnosis was confirmed. The format is in vivo.

In the case of `O=C([O-])c1ccccc1.[Na+]` [Sodium benzoate, sodium benzoate], for the setting “sodium benzoate 1000 mg per day for 2 months, patient able to return to a normal life”, the clinical improvement entry is given as “obvious clinical improvement”. Moreover, the “psychotic symptoms including dissociation and agitation” value (sodium benzoate 1000 mg per day for 2 months, patient refractory to antipsychotics, ECT and immunotherapy) was “reduced”. For `O=C1CCc2ccc(OCCCCN3CCN(c4cccc(Cl)c4Cl)CC3)cc2N1` [aripiprazole], the response to antipsychotics entry was “very poor response”.

On to `Cc1nc2n(c(=O)c1CCN1CCC(c3noc4cc(F)ccc34)CC1)CCCC2O` (stereo not shown) [paliperidone], for which the response to antipsychotics result is “very poor response”.
